{
  "source": "patent US7365200B2",
  "about": "“Thienopyridinone derivatives as macrophage migration inhibitory factor inhibitors” (Avanir Pharmaceuticals, priority 2005, dated 2008)",
  "data": [
    {"molecular_target": "T1, MIF produced by THP-1 cells (Homo sapiens, UniProt P14174)", "T1 construct": "THP-1 cell supernatant was collected and incubated with a candidate compound; endogenous in cells; host or cells: THP-1 cells, LPS-stimulated, culture supernatant", "T1 sequence (P14174 2-115 limits assumed)": "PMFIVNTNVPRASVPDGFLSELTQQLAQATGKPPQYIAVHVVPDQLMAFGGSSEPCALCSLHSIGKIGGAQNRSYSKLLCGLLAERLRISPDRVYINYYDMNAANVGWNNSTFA", "test": "Antibody binding assay of MIF inhibitors (ELISA, 96-well format)", "conditions": "LPS-stimulated THP-1 cell supernatant incubated with compound; MIF monoclonal antibody capture ELISA; read-out: In vitro MIF IC50", "description": "An antibody binding assay for MIF inhibitors was performed on selected compounds in a 96-well format using MIF produced by THP-1 cells. The THP-1 cells were washed once with 250 μl of 0.1 M sodium carbonate, pH 11.4, for 1 to 2 minutes and immediately aspirated. The THP-1 cells were then washed with media containing 0.5% FBS plus 25 μg/ml heparin and then incubated in this same medium for the indicated lengths of time. The THP-1 cells were resuspended to approx. 5×10^6 cells/ml in RPMI medium containing 20 μg/ml of bacterial LPS and incubated for 18-20 hours, after which THP-1 cell supernatant was collected and incubated with a candidate compound. A 96-well ELISA plate (Costar Number 3590) was coated with a MIF monoclonal antibody (R&D Systems Catalog Number MAB289) at a concentration of 4 μg/ml for two hours at 37° C. Undiluted THP-1 cell culture supernatant incubated with the candidate compound was added to the ELISA plate for a two-hour incubation at room temperature. The wells were then washed, a biotinylated MIF polyclonal antibody (R&D Systems #AF-289-PB) was added followed by Streptavidin-HRP and a chromogenic substrate. The amount of MIF was calculated by interpolation from an MIF standard curve.", "units": {"IC50": "nM"}, "values": [
      {"smiles": "N#Cc1c(N2CCN(C(=O)c3cccs3)CC2)c2cscc2n(CC(=O)c2ccccc2)c1=O", "note": "[Compound 101]", "IC50": 70},
      {"smiles": "N#Cc1c(N2CCN(C(=O)c3cccs3)CC2)c2cscc2n(Cc2ccc(F)cc2)c1=O", "note": "[Compound 102]", "IC50": 82},
      {"smiles": "COC(=O)c1ccc(Cn2c(=O)c(C#N)c(N3CCN(C(=O)c4cccs4)CC3)c3cscc32)cc1", "note": "[Compound 103]", "IC50": 437},
      {"smiles": "N#Cc1c(N2CCN(C(=O)c3cccs3)CC2)c2cscc2n(Cc2cccnc2)c1=O", "note": "[Compound 104]", "IC50": 59},
      {"smiles": "CCOC(=O)c1c(N2CCN(C(=O)c3cccs3)CC2)c2cscc2n(CC(=O)c2ccccc2)c1=O", "note": "[Compound 105]", "IC50": 53},
      {"smiles": "CCOC(=O)c1c(N2CCN(C(=O)c3cccs3)CC2)c2cscc2n(Cc2ccc(F)cc2)c1=O", "note": "[Compound 106]", "IC50": 40},
      {"smiles": "CCOC(=O)c1c(N2CCN(C(=O)c3cccs3)CC2)c2cscc2n(Cc2ccc(C(=O)OC)cc2)c1=O", "note": "[Compound 107]", "IC50": 35},
      {"smiles": "N#Cc1c(N2CCN(C(=O)c3cccs3)CC2)c2cscc2n(-c2cccnc2)c1=O", "note": "[Compound 108]", "IC50": 171},
      {"smiles": "CCOC(=O)c1c(N2CCN(C(=O)c3cccs3)CC2)c2sccc2n(Cc2ccc(F)cc2)c1=O", "note": "[Compound 109]", "IC50": 233},
      {"smiles": "N#Cc1c(N2CCN(C(=O)c3cccs3)CC2)c2sccc2n(CC(=O)c2ccccc2)c1=O", "note": "[Compound 110]", "IC50": 1730},
      {"smiles": "N#Cc1c(N2CCN(C(=O)c3cccs3)CC2)c2sccc2n(Cc2cccnc2)c1=O", "note": "[Compound 111]", "IC50": 254},
      {"smiles": "N#Cc1c(N2CCN(C(=O)c3cccs3)CC2)c2sccc2n(Cc2cccc(F)c2)c1=O", "note": "[Compound 112]", "IC50": 595},
      {"smiles": "N#Cc1c(N2CCN(C(=O)c3cccs3)CC2)c2sccc2n(Cc2ccc(F)cc2)c1=O", "note": "[Compound 113]", "IC50": 419},
      {"smiles": "CCOC(=O)c1c(N2CCN(C(=O)c3cccs3)CC2)c2ccsc2n(Cc2ccccc2)c1=O", "note": "[Compound 114]", "IC50": 70},
      {"smiles": "CCOC(=O)c1c(N2CCN(C(=O)c3cccs3)CC2)c2c(C)csc2n(Cc2ccccc2)c1=O", "note": "[Compound 115]", "IC50": 11800},
      {"smiles": "N#Cc1c(N2CCN(C(=O)c3cccs3)CC2)c2ccsc2n(Cc2ccccc2)c1=O", "note": "[Compound 116]", "IC50": 139},
      {"smiles": "Cc1csc2c1c(N1CCN(C(=O)c3cccs3)CC1)c(C#N)c(=O)n2Cc1ccccc1", "note": "[Compound 117]", "IC50": 12300},
      {"smiles": "CCOC(=O)c1c(N2CCN(C(=O)c3ccco3)CC2)c2sccc2n(Cc2ccc(F)cc2)c1=O", "note": "[Compound 119]", "IC50": 4150},
      {"smiles": "CCOC(=O)c1c(N2CCN(C(=O)c3cccs3)CC2)c2sccc2n(CC(=O)c2ccccc2)c1=O", "note": "[Compound 120]", "IC50": 799},
      {"smiles": "CCOC(=O)c1c(N2CCN(C(=O)c3cccs3)CC2)c2sccc2n(Cc2cccc(F)c2)c1=O", "note": "[Compound 121]", "IC50": 146},
      {"smiles": "CCOC(=O)c1c(N2CCN(C(=O)c3ccco3)CC2)c2sccc2n(Cc2cccc(F)c2)c1=O", "note": "[Compound 122]", "IC50": 5840},
      {"smiles": "CCOC(=O)c1c(N2CCN(C(=O)c3ccco3)CC2)c2sccc2n(CC(=O)c2ccccc2)c1=O", "note": "[Compound 123]", "IC50": 8770},
      {"smiles": "CCOC(=O)c1c(N2CCN(C(=O)c3cccs3)CC2)c2sccc2n(Cc2cccnc2)c1=O", "note": "[Compound 124]", "IC50": 269},
      {"smiles": "CC(C)OC(=O)c1c(N2CCN(C(=O)c3cccs3)CC2)c2sccc2n(Cc2cccc(F)c2)c1=O", "note": "[Compound 125]", "IC50": 387},
      {"smiles": "CCOC(=O)c1c(N2CCN(C(=O)c3ccc(F)s3)CC2)c2sccc2n(Cc2cccc(F)c2)c1=O", "note": "[Compound 126]", "IC50": 648},
      {"smiles": "CCOC(=O)c1c(N2CCN(C(=O)c3cccs3)CC2)c2cc(C)sc2n(Cc2cccc(F)c2)c1=O", "note": "[Compound 127]", "IC50": 32}
    ]},
    {"test_system": "not given", "test": "not given", "conditions": "not given", "units": {"melting point": "°C"}, "values": [
      {"smiles": "CCOC(=O)c1c(N2CCN(C(=O)c3cccs3)CC2)c2sccc2n(CC(=O)c2ccccc2)c1=O", "note": "[Compound 7, 5-oxo-4-(2-oxo-2-phenyl-ethyl)-7-[4-(thiophene-2-carbonyl)-piperazin-1-yl]4,5-dihydro-thieno[3,2-b]pyridine-6-carboxylic acid ethyl ester]", "melting point": 240},
      {"smiles": "CCOC(=O)c1c(N2CCN(C(=O)c3cccs3)CC2)c2sccc2n(Cc2cccc(F)c2)c1=O", "note": "[Compound 9, 4-(3-fluoro-benzyl)-5-oxo-7-[4-(thiophene-2-carbonyl)-piperazin-1-yl]-4,5-dihydro-thieno[3,2-b]pyridine-6-carboxylic acid ethyl ester]", "melting point": "95 to 113"},
      {"smiles": "CCOC(=O)c1c(N2CCN(C(=O)c3ccco3)CC2)c2sccc2n(CC(=O)c2ccccc2)c1=O", "note": "[Compound 13, 7-[4-(furan-2-carbonyl)-piperazin-1-yl]-5-oxo-4-(2-oxo-2-phenyl-ethyl)-4,5-dihydro-thieno[3,2-b]pyridine-6-carboxylic acid ethyl ester]", "melting point": 246},
      {"smiles": "N#Cc1c(N2CCN(C(=O)c3cccs3)CC2)c2sccc2n(Cc2ccc(F)cc2)c1=O", "note": "[Compound 28, 4-(4-fluoro-benzyl)-5-oxo-7-[4-(thiophene-2-carbonyl)-piperazin-1-yl]-4,5-dihydro-thieno[3,2-b]pyridine-6-carbonitrile]", "melting point": 286},
      {"smiles": "N#Cc1c(N2CCN(C(=O)c3cccs3)CC2)c2sccc2n(CC(=O)c2ccccc2)c1=O", "note": "[Compound 30, 5-oxo-4-(2-oxo-2-phenyl-ethyl)-7-[4-(thiophene-2-carbonyl)-piperazin-1-yl]-4,5-dihydro-thieno[3,2-b]pyridine-6-carbonitrile]", "melting point": 300},
      {"smiles": "CCOC(=O)c1c(N2CCN(C(=O)c3cccs3)CC2)c2cscc2n(Cc2ccc(F)cc2)c1=O", "note": "[Compound 42, 4-(4-fluoro-benzyl)-5-oxo-7-[4-(thiophene-2-carbonyl)-piperazin-1-yl]-4,5-dihydro-2-thia-4-aza-indene-6-carboxylic acid ethyl ester]", "melting point": 227},
      {"smiles": "N#Cc1c(N2CCN(C(=O)c3cccs3)CC2)c2cscc2n(CC(=O)c2ccccc2)c1=O", "note": "[Compound 48, 5-oxo-4-(2-oxo-2-phenyl-ethyl)-7-[4-(thiophene-2-carbonyl)-piperazin-1-yl]-4,5-dihydro-2-thia-4-aza-indene-6-carbonitrile]", "melting point": 308},
      {"smiles": "N#Cc1c(N2CCN(C(=O)c3cccs3)CC2)c2cscc2n(Cc2ccc(F)cc2)c1=O", "note": "[Compound 49, 4-(4-fluoro-benzyl)-5-oxo-7-[4-(thiophene-2-carbonyl)-piperazin-1-yl]-4,5-dihydro-2-thia-4-aza-indene-6-carbonitrile]", "melting point": 238},
      {"smiles": "COC(=O)c1ccc(Cn2c(=O)c(C#N)c(N3CCN(C(=O)c4cccs4)CC3)c3cscc32)cc1", "note": "[Compound 50, 4-{6-cyano-5-oxo-7-[4-(thiophene-2-carbonyl)-piperazin-1-yl]-5H-2-thia-4-aza-indene-4-ylmethyl}-benzoic acid methyl ester]", "melting point": 263},
      {"smiles": "N#Cc1c(N2CCN(C(=O)c3cccs3)CC2)c2cscc2n(-c2cccnc2)c1=O", "note": "[Compound 52, 5-oxo-4-pyridine-3-yl-7-[4-(thiophene-2-carbonyl)-piperazin-1-yl]-4,5-dihydro-2-thia-4-aza-indene-6-carbonitrile]", "melting point": 282},
      {"smiles": "Cc1csc2c1c(N1CCN(C(=O)c3cccs3)CC1)c(C#N)c(=O)n2Cc1ccccc1", "note": "[Compound 67, 7-benzyl-3-methyl-6-oxo-4-[4-(thiophene-2-carbonyl)-piperazin-1-yl]-6,7-dihydro-thieno[2,3-b]pyridine-5-carbonitrile]", "melting point": 223}
    ]}
  ]
}
